Results from patent US20230404979A1, “ALPHA-2 […] RECEPTOR AGONISTS TO REDUCE MORTALITY AND IMPROVE OUTCOMES IN VIRAL R[…]” (RUSH UNIVERSITY MEDICAL CENTER, priority 2020, published 2023).
Where two headings read alike, the source gives them in different places.

Assays:
[1] = test system: patients with COVID-19 requiring sedation and invasive mechanical ventilation
Excerpt: (§1) Data was collected from electronic medical records (EMRs) of Rush University hospitals: Rush University Medical Center; Rush Copley Medical Center; and Rush Oak Park Hospital. Deidentified data was collected from the EMRs by the Rush Bioinformatics and Biostatistics Core. This retrospective cohort study received expedited approval by the Institutional Review Board at Rush University Medical Center.
We identified patients that were hospitalized at Rush University from Mar. […] Corticosteroids were not excluded because at the time of the study there were no standard practices or guidelines for using this medication in the study population at Rush. Clinical outcomes were assessed from the time of admission to the time of discharge.
We evaluated patients in each group for age, gender, race, ethnicity, and comorbidities at admission. […] Directly prior to intubation, a sequential organ failure assessment score (SOFA) was calculated for each group, and a PaO2/FiO2 (mmHg) was separately assessed.
Our primary tool to assess 28-day mortality was multivariable Cox proportional hazards regression.
(§2) For continuous variables, independent samples t-tests were performed. For each continuous variable, a Levene's test for equality of variances was performed. With significance on Levene's test for heterogeneity of variances, a Mann-Whitney U test was performed. […] Categorical variables were assessed with a Pearson's chi-squared test. If any expected count in a 2×2 table was less than 5, a Fisher's exact test was performed. […] We used p≤0.05 as the threshold for significance.
Simple imputation using the mean of the immediate preceding and succeeding most severe value over 24 hours was used for missing values for Pao2/Flo2 and mSOFA scores within the 24 hour time period of interest (intubation) (11-13). A complete case analysis was performed (14). All analyses were performed using SPSS version 27.

[2] = test system: patients with COVID-19 requiring sedation and invasive mechanical ventilation; conditions: for Hospital length of stay / ICU Free days at day 60 / ICU time / Intubation time / Ventilator free days at day 60: mean
Excerpt: as §1
We identified patients that were hospitalized at Rush University from Mar. 1, 2020 to Jul. 30, 2020. […] Corticosteroids were not excluded because at the time of the study there were no standard practices or guidelines for using this medication in the study population at Rush. Clinical outcomes were assessed from the time of admission to the time of discharge.
as §2

[3] = 90% or greater vs less than 90%
[4] = time on dexmedetomidine/time on intubation 90% or greater (n=30)
[5] = time on dexmedetomidine/time on intubation less than 90% (n=122)

Cc1cccc([C@H](C)c2cnc[nH]2)c1C [DEX, dexmedetomidine]
relative risk reduction (28-day mortality) ([1]; DEX cohort vs cohort that did not receive DEX, 95% CI 42.4-69.6%): 58.2%
28-day mortality ([1]; from start time of intubation, cohort receiving DEX (n=152)): 27.0%
landmark analysis of 28-day mortality by start time of DEX ([1]; time cut-offs days 1-22 from intubation, earlier DEX use): lower aHRs and increased significance
28-day mortality aHR ([1]; univariable Cox regression with DEX use as time-varying covariate, (95% CI)): 0.56
Hospital length of stay ([2]; 90% or greater (n=30)): 24.37 days
ICU Free days at day 60 ([2]; 90% or greater (n=30)): 36.45
ICU time ([2]; 90% or greater (n=30)): 18.76 days
Intubation time ([2]; 90% or greater (n=30)): 9.61 days
Ventilator free days at day 60 ([2]; 90% or greater (n=30)): 43.63
Hospital length of stay, Difference Between Groups [2, 3]: -1.38 days
ICU Free days at day 60, Difference Between Groups [2, 3]: 11.48
ICU time, Difference Between Groups [2, 3]: -1.83 days
Intubation time, Difference Between Groups [2, 3]: -5.92 days
Ventilator free days at day 60, Difference Between Groups [2, 3]: 15.55
In-hospital mortality, Risk Ratio ([2]; 90% or greater vs less than 90% of intubation time on dexmedetomidine): 0.277
Hospital length of stay ([2]; less than 90% (n=122)): 25.75 days
ICU Free days at day 60 ([2]; less than 90% (n=122)): 24.98
ICU time ([2]; less than 90% (n=122)): 20.59 days
Intubation time ([2]; less than 90% (n=122)): 15.53 days
Ventilator free days at day 60 ([2]; less than 90% (n=122)): 28.08
In-hospital mortality (%) [2, 4]: (10.0%)
In-hospital mortality (count) [2, 4]: 3/30
In-hospital mortality (%) [2, 5]: (36.1%)
In-hospital mortality (count) [2, 5]: 44/122
